EC50, Activity and bioavailability data for 23 compounds are collected here from ChEMBL document CHEMBL1165956, “Design, synthesis, and pharmacological evaluation of N-(4-mono and 4,5-disubstituted thiazol-2-yl)-2-aryl-3-(tetrahydro-2H-pyran-4-yl)propanamides as glucokinase activators” (Bioorg Med Chem, 2010).

Active and inactive are the calls of the source. The rule behind the calls is not given here.

Data set [1] addresses T1, Hexokinase-4 (Homo sapiens, UniProt P35557).
T1 sequence (P35557 whole entry): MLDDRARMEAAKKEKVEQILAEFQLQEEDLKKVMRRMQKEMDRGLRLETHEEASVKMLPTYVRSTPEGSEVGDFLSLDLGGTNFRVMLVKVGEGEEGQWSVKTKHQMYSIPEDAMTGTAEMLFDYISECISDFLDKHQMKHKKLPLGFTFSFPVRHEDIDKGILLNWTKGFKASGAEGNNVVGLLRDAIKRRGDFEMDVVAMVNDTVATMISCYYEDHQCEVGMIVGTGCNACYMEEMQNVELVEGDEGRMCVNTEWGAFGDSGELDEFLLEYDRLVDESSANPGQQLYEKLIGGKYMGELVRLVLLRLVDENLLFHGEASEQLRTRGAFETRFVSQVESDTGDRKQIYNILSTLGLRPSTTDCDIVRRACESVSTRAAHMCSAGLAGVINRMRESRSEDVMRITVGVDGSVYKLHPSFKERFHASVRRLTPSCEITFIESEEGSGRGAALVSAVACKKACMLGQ
Description: Activation of human glucokinase expressed in Escherichia coli BL21(DE3) coexpressing G6PDH by spectrometry.

The test system of data set [2] is Mus musculus. The experiment in a line: Antihyperglycemic activity in diabetic C57BL/6J ob/ob mouse assessed as decrease in blood glucose at 20 mg/kg, po administered as single dose measured after 120 mins relative to control. Type of data set: functional, organism-based. Further details: dose 20 mg/kg.
The subject of data set [3] is Hepatocyte. The experiment in a line: Induction of glycogen synthesis in Sprague-Dawley rat hepatocytes at 20 uM after 4 hrs relative to control. Type of data set: functional.
Data set [4] deals with Mus musculus. The experiment in a line: Hypoglycemic activity in non-diabetic ICR mouse assessed as decrease in blood glucose at 10 mg/kg, po administered as single dose measured after 240 mins relative to control. Further details: dose 10 mg/kg. Type of data set: functional, organism-based.
Data set [5] relates to Mus musculus. Description: Antihyperglycemic activity in diabetic C57BL/6J ob/ob mouse assessed as decrease in blood glucose at 50 mg/kg, po administered as single dose measured after 60 mins relative to control. Type of data set: functional, organism-based. Further details: dose 50 mg/kg.
Data set [6] deals with Mus musculus. Description: Hypoglycemic activity in non-diabetic ICR mouse assessed as decrease in blood glucose at 50 mg/kg, po administered as single dose measured after 240 mins relative to control. Further details: dose 50 mg/kg. Type of data set: functional, organism-based.
The subject of data set [7] is Mus musculus. Description: Hypoglycemic activity in non-diabetic ICR mouse assessed as decrease in blood glucose at 3 mg/kg, po administered as single dose measured after 30 mins relative to control. Type of data set: functional. Further details: scale not given: the % may be the effect or the level left.
The test system of data set [8] is Mus musculus. The experiment in a line: Antihyperglycemic activity in diabetic C57BL/6J ob/ob mouse assessed as decrease in blood glucose at 50 mg/kg, po administered as single dose measured after 180 mins relative to control. Type of data set: functional, organism-based. Further details: dose 50 mg/kg.
Data set [9] has as its system Mus musculus. Description: Hypoglycemic activity in non-diabetic ICR mouse assessed as decrease in blood glucose at 50 mg/kg, po administered as single dose measured after 30 mins relative to control. Type of data set: functional. Further details: scale not given: the % may be the effect or the level left.
In data set [10] the test system is Mus musculus. Description: Hypoglycemic activity in non-diabetic ICR mouse assessed as decrease in blood glucose at 10 mg/kg, po administered as single dose measured after 30 mins relative to control. Type of data set: functional. Further details: scale not given: the % may be the effect or the level left.
Data set [11] concerns the target T2, Hexokinase-4 (Rattus norvegicus, UniProt P17712).
T2 sequence (P17712 whole entry): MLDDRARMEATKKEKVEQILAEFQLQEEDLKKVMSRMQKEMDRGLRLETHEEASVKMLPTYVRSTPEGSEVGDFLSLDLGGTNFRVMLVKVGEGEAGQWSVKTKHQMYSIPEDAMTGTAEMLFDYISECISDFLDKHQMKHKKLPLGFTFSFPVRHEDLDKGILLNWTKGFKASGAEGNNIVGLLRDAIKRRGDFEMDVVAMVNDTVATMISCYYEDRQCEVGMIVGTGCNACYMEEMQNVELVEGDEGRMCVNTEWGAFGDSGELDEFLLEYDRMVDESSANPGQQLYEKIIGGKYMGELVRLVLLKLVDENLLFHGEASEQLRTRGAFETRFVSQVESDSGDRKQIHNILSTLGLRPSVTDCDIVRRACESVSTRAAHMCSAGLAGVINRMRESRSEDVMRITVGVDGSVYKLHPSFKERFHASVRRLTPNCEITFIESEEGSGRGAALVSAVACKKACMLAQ
Description: Induction of glucokinase-mediated 2-deoxy-D-[3H]glucose uptake in Sprague-Dawley rat hepatocytes after 4 hrs by liquid scintillation countingl

Data set [12] deals with Mus musculus. Description: Antihyperglycemic activity in diabetic C57BL/6J ob/ob mouse assessed as decrease in blood glucose at 20 mg/kg, po administered as single dose measured after 180 mins relative to control. Type of data set: functional, organism-based. Further details: dose 20 mg/kg.
For data set [13], the system named is Mus musculus. The experiment in a line: Hypoglycemic activity in non-diabetic ICR mouse assessed as decrease in blood glucose at 3 mg/kg, po administered as single dose measured after 120 mins relative to control. Type of data set: functional, organism-based. Further details: dose 3 mg/kg.
In data set [14] the test system is Mus musculus. Description: Antihyperglycemic activity in diabetic C57BL/6J ob/ob mouse assessed as decrease in blood glucose at 50 mg/kg, po administered as single dose measured after 120 mins relative to control. Type of data set: functional, organism-based. Further details: dose 50 mg/kg.
The nature of data set [15]: Oral bioavailability in rat. Type of data set: ADME, organism-based. Conditions: in vivo.
A short description of data set [16]: Oral bioavailability in dog. Type of data set: ADME, organism-based, Canis lupus familiaris. Conditions: in vivo.

Turning to `CC(C)c1nc(NC(=O)C(CC2CCOCC2)c2ccc(S(=O)(=O)C3CC3)cc2)sc1I` (stereo unspecified), in data set [1], the EC50 result is given as “Not Active”. For `CCc1csc(NC(=O)C(CC2CCOCC2)c2ccc(S(C)(=O)=O)cc2)n1` (stereo unspecified), the EC50 in data set [1] (read-out: EC50) was 1000 nM.

In the case of `CC(C)c1csc(NC(=O)[C@H](CC2CCOCC2)c2ccc(S(C)(=O)=O)cc2)n1`, the EC50 in data set [1] (read-out: EC50) was found to be 330 nM.

`CS(=O)(=O)c1ccc(C(CC2CCOCC2)C(=O)Nc2nc(-c3ccc(F)cc3)cs2)cc1` (stereo unspecified): the EC50 in data set [1] (read-out: EC50) stood at 1180 nM. With `CS(=O)(=O)c1ccc(C(CC2CCOCC2)C(=O)Nc2nc3cc(F)ccc3s2)cc1` (stereo unspecified), the EC50 result in data set [1] was “Not Active”. Still for that read-out and setting: to `CC(C)/C=C1\SC(NC(=O)C(CC2CCOCC2)c2ccc(S(=O)(=O)C3CC3)cc2)=NC1=O` (stereo unspecified) belongs “Not Active”. Take `CC(C)c1csc(NC(=O)C(CC2CCOCC2)c2ccc(S(C)(=O)=O)cc2)n1` (stereo unspecified): the EC50 in [1] (read-out: EC50) was determined as 310 nM.

For `O=C(Nc1nc2c(s1)CCC2)C(CC1CCOCC1)c1ccc(S(=O)(=O)C2CC2)cc1` (stereo unspecified), the EC50 in data set [1] (read-out: EC50) was 79 nM.

As to `C=C(C)c1csc(NC(=O)C(CC2CCOCC2)c2ccc(S(=O)(=O)C3CC3)cc2)n1` (stereo unspecified), the EC50 in [1] (read-out: EC50) came out at 158 nM. With `O=C1CSC(NC(=O)C(CC2CCOCC2)c2ccc(S(=O)(=O)C3CC3)cc2)=N1` (stereo unspecified), in data set [1] (read-out: EC50), the EC50 is 4680 nM. On the same count and under the same terms, to `CN1CCc2nc(NC(=O)C(CC3CCOCC3)c3ccc(S(=O)(=O)C4CC4)cc3)sc2C1` (stereo unspecified) belongs 2860 nM; to `CC(C)(C)c1csc(NC(=O)C(CC2CCOCC2)c2ccc(S(C)(=O)=O)cc2)n1` (stereo unspecified), 2930 nM; to `COc1ccc(-c2csc(NC(=O)C(CC3CCOCC3)c3ccc(S(C)(=O)=O)cc3)n2)cc1` (stereo unspecified), 1040 nM. Still for that read-out and setting: in the case of `Cc1nc(NC(=O)C(CC2CCOCC2)c2ccc(S(C)(=O)=O)cc2)sc1C` (stereo unspecified) it was 2860 nM. With `CC(C)Cc1csc(NC(=O)C(CC2CCOCC2)c2ccc(S(C)(=O)=O)cc2)n1` (stereo unspecified), the EC50 in [1] (read-out: EC50) was found to be 355 nM. Still for that read-out and setting: in the case of `CS(=O)(=O)c1ccc(C(CC2CCOCC2)C(=O)Nc2nccs2)cc1` (stereo unspecified) it was 1690 nM. Take `CC(C)c1csc(NC(=O)[C@H](CC2CCOCC2)c2ccc(S(=O)(=O)C3CC3)cc2)n1`: the result in [2], in [4], in data set [5], in data set [6], in data set [8] and in data set [12] was Active. Further, the outcome in data set [13] and in data set [14] was Active. Moreover, the Activity in [3] came out at 83.7%; in data set [7], 12.7%; in [9], 40.7%; in data set [10] it was 33.9%. This compound gave an EC50 in [11] of 26 nM. As to `CS(=O)(=O)c1ccc(C(CC2CCOCC2)C(=O)Nc2nc(C3CC3)cs2)cc1` (stereo unspecified), in [1] (read-out: EC50), the EC50 came out at 1350 nM. As for `COC[C@H](C)Oc1cc(O[C@@H](C)Cc2ccccc2)cc(C(=O)Nc2ccc(C(=O)O)cn2)c1`, the bioavailability in [15] was 90%; in data set [16], 100%.

In the case of `Cc1nc(NC(=O)C(CC2CCOCC2)c2ccc(S(C)(=O)=O)cc2)sc1C(C)C` (stereo unspecified), in [1], the EC50 result was “Not Active”. On the same count and under the same terms, to `O=C1N=C(NC(=O)C(CC2CCOCC2)c2ccc(S(=O)(=O)C3CC3)cc2)S/C1=C\c1ccccc1` (stereo unspecified) belongs “Not Active”.

Turning to `CC(C)c1nc(NC(=O)C(CC2CCOCC2)c2ccc(S(=O)(=O)C3CC3)cc2)sc1Br` (stereo unspecified), the EC50 in data set [1] (read-out: EC50) was determined as 320 nM. On the same count and under the same terms, in the case of `CS(=O)(=O)c1ccc(C(CC2CCOCC2)C(=O)Nc2nc(-c3ccccc3)cs2)cc1` (stereo unspecified) it was 724 nM.
